Entries after “also recorded” stand apart in the source; their conditions may differ. Some results are limits rather than exact numbers.

Data set [1] deals with naïve CD8+ T cells. Description: CFSE proliferation of CD8+ T cells stimulated by neoepitope-loaded DCs. The class given is cell-based, human. To be noted: DCs loaded with 10 µg/mL neoepitope, T cells:DCs 10:1, two rounds of 7 days, flow cytometry, mean ± SD. As for the experimental part:
(§1) To elicit neoepitope-specific CD8^+ T cell responses, peripheral blood mononuclear cells (PBMCs) were isolated from healthy HLA-A0201 volunteer donors using lymphocyte separation medium (MP Biomedicals, Burlingame, CA, USA). This protocol was approved by the Ethics Committee of Fujian Cancer Hospital (Approval No. SQ2017-032-01). PBMCs were seeded into a 6-well plate and incubated for 2 h. Adherent cells were then induced to differentiate into dendritic cells (DCs) with 581 medium (Corning, NY, USA) in the presence of 100 ng/mL recombinant human GM-CSF (Mitenyi Biotec, Bergisch Gladbach, Germany) and 50 ng/mL recombinant human IL-4 (Mitenyi Biotec). DCs were sensitized with 10 µg/mL neoepitope, with a preparation without peptide serving as the control. After 24 h, 10 ng/mL IL-6 (Miltenyi Biotec), 10 ng/mL IL-1β (Miltenyi Biotec), 1 µg/mL CD40L (Miltenyi Biotec), and 10 ng/mL TNF-α (Mitenyi Biotec) were added for DC maturation. Next, naïve T cells were co-cultured for 7 days with DCs at a responder: stimulator ratio of 10:1. Medium was then replaced by half-fresh medium containing IL-2 (200 IU/mL, Jiangsu Kingsley Pharmaceutical, Nanjing, China) every 3 days. After another stimulation with neoepitope-loaded DCs for 7 days, CD8 MicroBeads (Mitenyi Biotec) were used to isolate positive CD8^+ T cells for subsequent experiments.
The naïve CD8^+ T cells were adjusted to 1 × 10^7 cells/mL and subjected to carboxyfluorescein succinimidyl ester (CFSE; Invitrogen) staining. The CFSE concentration was 1 µg/mL. Naïve CD8^+ T cells were incubated at 37 °C in the dark for 5 min. CFSE-labeled naïve CD8^+ T cells were incubated in 5 times the volume of 581 medium containing 5% FBS (PAN-Seratech, Aidenbach, Germany) in the dark for 2.5 min, centrifuged at 1,500 rpm for 5 min, and resuspended in 581 medium. The naïve CD8^+ T cells were co-cultured with DCs with different neoepitopes at a ratio of 10:1 (naive CD8^+ T cells: 1 × 10^6 cells: DCs: 1 × 10^5 cells). After co-culturing with DCs with different neoepitopes for 2 consecutive times, 7 days for each time, T cells were stained with 20 µL PerCP-CD3 fluorescent antibody (BD Biosciences) and 5 µL APC-CD8 fluorescent antibody (BD Biosciences) in the dark for 30 min. The CFSE abundance on the surface of T cells was detected by flow cytometry to determine the proliferation of T cells.

The target in data set [2] is T1, HLA-A0201 molecules on the T2 cell surface (Homo sapiens, UniProt P04439, D140Y/D185E/D98H/E176V/E277Q/G131W/G231S/I119V/I121R/I166T/I218V/L300P/L318F/N151K/N90K/P208A/P217A/Q86G/Q94H/R138H/R169H/T345S).
T1 construct: The MFI (mean fluorescence intensity) of HLA-A0201 molecules on the T2 cell surface was detected by flow cytometry; endogenous in cells; host or cells: T2 cells
Description: T2 binding (affinity) assay. To be noted: T2 cells 1 × 10^6 cells/well, 50 µg epitope + 3 µg β2M in 1 mL FBS-free RPMI1640, 37 °C, 18 h, PE-HLA-A2 antibody, flow cytometry, FI = (MFI epitope – MFI control)/MFI control, mean ± SD. As for the experimental part: The T2 cells were placed in a 24-well plate at a density of 1 × 10^6 cells/well; 50 µg epitope and 3 µg β2M (Merck, Kenilworth, NJ, USA) were then added and incubated in 1 mL fetal bovine free (FBS)-free RPMI1640 medium (Invitrogen, Carlsbad, CA, USA) at 37 °C for 18 h. T2 cells were washed twice with phosphate-buffered saline (PBS), treated with 20 µL PE-HLA-A2 fluorescent antibody (BD Biosciences, San Jose, CA, USA), incubated in the dark for 30 min, and then washed with PBS once. The MFI (mean fluorescence intensity) of HLA-A0201 molecules on the T2 cell surface was detected by flow cytometry (BD Biosciences). The formula used for calculating the fluorescence index was as follows: FI = (MFI of the epitope group – MFI of the control group)/MFI of the control group.
On the technique in general: In flow cytometry, cells or beads pass a laser one at a time.

The target of data set [3] is T2, pMHC complex (neoepitope/HLA-A0201) on T2 cells (Homo sapiens, UniProt P04439, D140Y/D185E/D98H/E176V/E277Q/G131W/G231S/I119V/I121R/I166T/I218V/L300P/L318F/N151K/N90K/P208A/P217A/Q86G/Q94H/R138H/R169H/T345S).
T2 construct: endogenous in cells; host or cells: T2 cells
Description: T2 stability assay of pMHC complex. The class given is binding. To be noted: for DC50 (time required for 50% dissociation of the pMHC complex stabilized at t = 0 h): T2 cells, 50 µg epitope + 3 µg β2M 18 h, 5 µg/mL brefeldin A 1 h, then 0, 6, 12, 18, 24 h at 37 °C, PE-HLA-A2 flow cytometry; for Stability of pMHC complexes (dissociation rate over 0-24 h, Figure 2B): in words, mean ± SD of 3 independent experiments. Here is the method: T2 cells were cultured with 50 µg of each epitope peptide and 3 µg β2M for 18 h in 1 mL FBS-free RPMI1640 medium at 37 °C in a 24-well plate using 1 × 10^6 cells/well. T2 cells were then incubated with 5 µg/mL brefeldin A (Abcam, Cambridge, UK) at 37 °C for another 1 h after washing twice with PBS. […] The MFI of the HLA-A0201 molecules in T2 cells was detected by flow cytometry. The results are expressed as DC50, which is the time required for 50% dissociation of the pMHC complex stabilized at t = 0 h.

The test system of data set [4] is T2 cells loaded with wild-type neoepitopes. The experiment in a line: LDH release cytotoxicity assay of neoepitope-specific CTLs. The class given is cell-based, human. To be noted: effector/target 20:1, 10:1, 5:1, 4 h, 37 °C, compared with wild-type neoepitope-specific CTLs. As for the experimental part:
as §1
The amount of lactate dehydrogenase (LDH) released from target cells incubated with neoepitope-specific T cells was measured using the CytoTox 96® Non-Radioactive Cytotoxicity Assay Kit (Promega, Madison, WI, USA). T2 cells loaded with neoepitopes were used as target cells at 1 × 10^4 cells/well in 96-well plates. […] After adding stop solution at 50 µL/well, the plates were analyzed using a microplate reader at a wavelength of 490 nm. The killing percentage of antigen-specific T cells to T2 cells loaded with neoepitopes was calculated according to the following formula: killing percentage = (experimental release – target spontaneous release – effector spontaneous release)/(target maximum release – target spontaneous release) × 100%.
For orientation: LDH in the medium is a marker of cell lysis.

The subject of data set [5] is neoepitope-specific CTLs. Description: Intracellular perforin staining of CTLs. To be noted: T cells:T2 cells loaded with wild-type neoepitopes 10:1, 24 h, brefeldin A 1 h, CD8+ gate, flow cytometry, mean ± SD of 3 independent experiments. The class given is cell-based, human. As for the experimental part:
as §1
T cells and T2 cells loaded with wild-type neoepitopes were co-cultured at a ratio of 10:1 for 24 h, incubated in the presence of 5 µg/mL brefeldin A for 1 h, and washed with PBS once. The cells were stained with 20 µL PerCP-CD3 fluorescent antibody and 5 µL APC-CD8 fluorescent antibody in the dark for 30 min, followed by fixation with 100 µL Reagent A from a Intrasure Kit (BD Biosciences) in the dark for 5 min. Subsequently, the cells were permeabilized and stained with 50 µL Reagent B from the Intrasure Kit and 20 µL FITC-perforin fluorescent antibody (BD Biosciences) in the dark for 30 min. After washing with PBS once, the expression of perforin in T cells was detected by flow cytometry.

Data set [6] deals with neoepitope-specific CTLs. The experiment in a line: TNF-α ELISA, CTLs co-cultured with target cells. To be noted: ELISA of supernatant; compared with CTLs stimulated by wild-type neoepitopes, P < 0.05. The data set is classed as cell-based, human. Here is the method:
as §1
(§2) The level of IFN-γ or TNF-α in the culture supernatants was detected using commercially available ELISA kits (Thermo Fisher Scientific, Waltham, MA, USA). Briefly, 96-well plates were coated with 100 µL/well capture antibody in coating buffer overnight. Plates were washed with wash buffer 3 times, 200 µL/well ELISA Diluent (1×) was added, and plates were incubated for 1 h. After washing with wash buffer twice, 100 µL/well of supernatants were added, incubated for 2 h, and washed with wash buffer 3 times, followed by addition of 100 µL/well antibodies against human IFN-γ/TNF-α. […] After incubation for 15 min, 100 µL/well stop solution was added to each well, and the optical density was measured using a microplate reader at 450 nm.

For data set [7], the system named is neoepitope-specific CTLs. Description: IFN-γ ELISA, CTLs co-cultured with target cells. The class given is cell-based, human. To be noted: ELISA of supernatant; compared with CTLs stimulated by wild-type neoepitopes, P < 0.05. As for the experimental part:
as §1, §2
For orientation: ELISA stands for enzyme-linked immunosorbent assay.

In data set [8] the test system is T cells. The experiment in a line: IFN-γ ELISA, T cells co-cultured with neoepitope-loaded DCs. To be noted: ELISA of co-culture supernatant; compared with wild-type neoepitope, P < 0.05. The class given is cell-based, human. As for the experimental part:
as §1, §2

In the case of SLIISVDGV [mutSTOML2], the “Proliferation of specific CD8+ T cells” value in data set [1] is 17.70% ± 1.14%. In addition, the “FI (fluorescence index)” value in data set [2] amounted to 4.71 ± 0.41. Moreover, in data set [3], the “DC50 (time required for 50% dissociation of the pMHC complex stabilized at t = 0 h)” value is recorded as above 18 h and the “Stability of pMHC complexes (dissociation rate over 0-24 h, Figure 2B)” value was “higher than those of wild-type neoepitopes”. Moreover, the “Cytotoxicity of neoepitope-specific CTLs on T2 cells loaded with wild-type neoepitopes” value (“Cytotoxicity of neoepitope-specific CTLs” below) in data set [4] is reported as “killed a greater number of T2 cells loaded with wild-type neoepitopes”. The “Perforin expression in CTLs” value in data set [5] is 41.30% ± 1.76%. In data set [6], the “TNF-α released by CTLs co-cultured with target cells” value (“TNF-α released by CTLs co-cultured” below) was “released more IFN-γ and TNF-α”. In addition, the “IFN-γ released by CTLs co-cultured with target cells” value (from here on “IFN-γ released by CTLs co-cultured”) in data set [7] is “released more IFN-γ and TNF-α”. Also, in data set [8], the “IFN-γ secretion in T cells stimulated by DCs with neoepitopes” value (shortened to “IFN-γ secretion in T cells stimulated”) is reported as “more IFN-γ than the wild-type neoepitopes”.

Consider SVIISVDGV [mutSTOM], for which the “Proliferation of specific CD8+ T cells” value in data set [1] is listed as 14.03% ± 0.76%. The “FI (fluorescence index)” value in data set [2] worked out at 4.27 ± 0.52. For the same sequence, in data set [3], the “DC50 (time required for 50% dissociation of the pMHC complex stabilized at t = 0 h)” value is listed as below 18 h. Further, in data set [5], the “Perforin expression in CTLs” value is recorded as 35.53% ± 1.02%.

Regarding FLGITATVV [mutABCA2L2], the “Proliferation of specific CD8+ T cells” value in data set [1] is reported as 16.47% ± 1.59%. Moreover, in data set [2], the “FI (fluorescence index)” value amounted to 4.49 ± 0.42. Moreover, in data set [3], the “DC50 (time required for 50% dissociation of the pMHC complex stabilized at t = 0 h)” value is above 18 h and the “Stability of pMHC complexes (dissociation rate over 0-24 h, Figure 2B)” value is “higher than those of wild-type neoepitopes”. For the same sequence, the “Cytotoxicity of neoepitope-specific CTLs” value in data set [4] is reported as “killed a greater number of T2 cells loaded with wild-type neoepitopes”. The “Perforin expression in CTLs” value in data set [5] is listed as 36.57% ± 2.01%. Further, the “TNF-α released by CTLs co-cultured” value in data set [6] is “released more IFN-γ and TNF-α”. Further, the “IFN-γ released by CTLs co-cultured” value in data set [7] was “released more IFN-γ and TNF-α”. Further, the “IFN-γ secretion in T cells stimulated” value in data set [8] is on record as “more IFN-γ than the wild-type neoepitopes”.

Consider PLLPVTCGV [mutSP140], for which the “Proliferation of specific CD8+ T cells” value in data set [1] was 18.87% ± 0.81%. For the same sequence, the “FI (fluorescence index)” value in data set [2] is given as 3.79 ± 0.50. Further, the “DC50 (time required for 50% dissociation of the pMHC complex stabilized at t = 0 h)” value in data set [3] is above 24 h. The “Perforin expression in CTLs” value in data set [5] was 44.70% ± 1.68%.

Regarding FIGITATVV [mutABCA2], the “Proliferation of specific CD8+ T cells” value in data set [1] is 12.53% ± 1.79%. Further, the “FI (fluorescence index)” value in data set [2] was 3.32 ± 0.36. In data set [3], the “DC50 (time required for 50% dissociation of the pMHC complex stabilized at t = 0 h)” value was below 18 h. In data set [5], the “Perforin expression in CTLs” value is listed as 29.87% ± 2.12%.

YLLPVTCGV [mutSP140Y1]: the “Proliferation of specific CD8+ T cells” value in data set [1] is on record as 23.43% ± 1.17%. Also, the “Stability of pMHC complexes (dissociation rate over 0-24 h, Figure 2B)” value in data set [3] is on record as “higher than those of wild-type neoepitopes; also recorded: more stable than mutSP140”. For the same sequence, the “Cytotoxicity of neoepitope-specific CTLs” value in data set [4] was “killed a greater number of T2 cells loaded with wild-type neoepitopes”. The “Perforin expression in CTLs” value in data set [5] is given as 56.20% ± 1.28%. Also, in data set [6], the “TNF-α released by CTLs co-cultured” value is “released more IFN-γ and TNF-α”. The “IFN-γ released by CTLs co-cultured” value in data set [7] is “released more IFN-γ and TNF-α”. Moreover, the “IFN-γ secretion in T cells stimulated” value in data set [8] was “more IFN-γ than the wild-type neoepitopes”.

The record behind these values is article PMC8610152, “Residue substitution enhances the immunogenicity of neoepitopes from gastric cancers” (Cancer Biology & Medicine, 2021).
